Measured values reported in paper PMC5148686 (European journal of medicinal chemistry, 2016).
“Also recorded” adds a separate entry of the source.

Assays:
[1] = biological target: human dopamine D2 receptor (Homo sapiens, UniProt P14416); assay: PDSP radioligand binding assay at dopamine D2 receptor; conditions: primary assay at 10 μM; not progressed to secondary assay
[2] = biological target: dopamine D1 receptor (Macaca mulatta, UniProt O77680); assay: [35S]GTPγS binding stimulation in HEK293-rh D1 cells; type: cell-based, rhesus macaque; conditions: compared with dopamine as full agonist
Sequence of dopamine D1 receptor (O77680 whole entry): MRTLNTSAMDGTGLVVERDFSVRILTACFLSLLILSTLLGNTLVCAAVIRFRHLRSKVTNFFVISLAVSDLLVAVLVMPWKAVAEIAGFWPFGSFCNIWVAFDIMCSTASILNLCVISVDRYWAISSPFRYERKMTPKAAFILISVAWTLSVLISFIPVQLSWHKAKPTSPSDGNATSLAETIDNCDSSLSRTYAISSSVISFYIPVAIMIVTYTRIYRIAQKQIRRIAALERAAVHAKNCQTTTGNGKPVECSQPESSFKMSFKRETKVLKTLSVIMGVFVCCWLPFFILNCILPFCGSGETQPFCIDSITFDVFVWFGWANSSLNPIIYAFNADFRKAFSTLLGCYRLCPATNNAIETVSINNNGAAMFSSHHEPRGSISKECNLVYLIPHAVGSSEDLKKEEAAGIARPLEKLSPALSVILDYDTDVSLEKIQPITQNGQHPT

[3] = biological target: T1, dopamine D3 receptor (Homo sapiens, UniProt P35462); assay: [35S]GTPγS binding in CHO-hD3 cells; type: cell-based; conditions: compared with dopamine as full agonist
T1 sequence (P35462 whole entry): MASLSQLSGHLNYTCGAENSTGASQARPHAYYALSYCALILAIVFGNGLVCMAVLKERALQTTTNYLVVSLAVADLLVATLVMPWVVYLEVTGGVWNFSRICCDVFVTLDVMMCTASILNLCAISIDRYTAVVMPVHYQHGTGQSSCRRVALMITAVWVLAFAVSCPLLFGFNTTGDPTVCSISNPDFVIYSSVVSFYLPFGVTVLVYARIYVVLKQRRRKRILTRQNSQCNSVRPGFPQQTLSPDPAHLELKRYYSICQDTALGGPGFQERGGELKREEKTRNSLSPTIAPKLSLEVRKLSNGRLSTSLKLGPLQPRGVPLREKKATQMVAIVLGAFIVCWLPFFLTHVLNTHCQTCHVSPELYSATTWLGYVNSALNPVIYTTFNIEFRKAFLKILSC

[4] = biological target: T1, dopamine D3 receptor; assay: PDSP radioligand binding assay at dopamine D3 receptor; conditions: versus 22c

Sequence of human dopamine D2 receptor (P14416 whole entry): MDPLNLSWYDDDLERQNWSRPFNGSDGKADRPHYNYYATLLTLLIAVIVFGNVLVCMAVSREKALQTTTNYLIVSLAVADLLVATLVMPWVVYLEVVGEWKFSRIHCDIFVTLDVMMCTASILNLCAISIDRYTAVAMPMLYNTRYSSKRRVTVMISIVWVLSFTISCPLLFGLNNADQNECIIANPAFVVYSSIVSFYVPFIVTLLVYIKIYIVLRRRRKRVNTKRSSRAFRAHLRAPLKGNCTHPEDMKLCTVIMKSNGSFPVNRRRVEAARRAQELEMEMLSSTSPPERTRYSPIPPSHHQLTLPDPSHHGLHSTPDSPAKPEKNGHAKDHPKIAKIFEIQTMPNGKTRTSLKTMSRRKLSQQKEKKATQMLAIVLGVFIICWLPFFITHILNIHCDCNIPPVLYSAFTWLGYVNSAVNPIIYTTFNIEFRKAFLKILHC

Compound	D2 receptor affinity in the primary assay [1]	also measured
CCOc1c(O)cc(Br)c2c1CN1CCc3cc(OC)c(O)cc3[C@@H]1C2 [Compound 20a, (S)-12-bromo-9-ethoxy-3-methoxy-5,8,13,13a-tetrahydro-6H-isoquinolino[3,2-a]isoquinoline-2,10-diol]	did not show any appreciable D2 receptor affinity	–
COCCOc1c(O)cc(Br)c2c1CN1CCc3cc(OC)c(O)cc3[C@@H]1C2 [Compound 20g, (S)-12-bromo-3-methoxy-9-(2-methoxyethoxy)-5,8,13,13a-tetrahydro-6H-isoquinolino[3,2-a]isoquinoline-2,10-diol]	did not show any appreciable D2 receptor affinity; also recorded: no activity	–
CCOc1c(O)ccc2c1CN1CCc3cc(OC)c(O)cc3[C@@H]1C2 [Compound 22a, (S)-9-ethoxy-3-methoxy-5,8,13,13a-tetrahydro-6H-isoquinolino[3,2-a]isoquinoline-2,10-diol]	lacked any appreciable affinity	intrinsic activity at D1 receptor (stimulation of GTPγ-S binding) [2]: lacked intrinsic activity; intrinsic activity at D3 receptor (stimulation of GTPγ-S binding) [3]: lacked intrinsic activity
CCCCOc1c(O)ccc2c1CN1CCc3cc(OC)c(O)cc3[C@@H]1C2 [Compound 22c, (S)-9-butoxy-3-methoxy-5,8,13,13a-tetrahydro-6H-isoquinolino[3,2-a]isoquinoline-2,10-diol]	lacked any appreciable affinity	–
CCCCCCOc1c(O)ccc2c1CN1CCc3cc(OC)c(O)cc3[C@@H]1C2 [Compound 22e, (S)-9-(hexyloxy)-3-methoxy-5,8,13,13a-tetrahydro-6H-isoquinolino[3,2-a]isoquinoline-2,10-diol]	lacked any appreciable affinity	–
COCCOc1c(O)ccc2c1CN1CCc3cc(OC)c(O)cc3[C@@H]1C2 [Compound 22g, (S)-3-methoxy-9-(2-methoxyethoxy)-5,8,13,13a-tetrahydro-6H-isoquinolino[3,2-a]isoquinoline-2,10-diol]	–	fold higher D3 affinity than n-butyloxy analogue 22c [4]: 4 fold
